Patent US4409210A, “Antibiotic compound” (priority 1982, dated 1983)
Converted amounts (≈) assume the structure as drawn.

How the values were obtained:
Assay type in all cases: cell-based
[1] = system: Staphylococcus aureus A20239; assay: MIC, serial two-fold dilution method (aerobic); settings: Staphylococcus aureus A20239; Mueller-Hinton agar; inoculum 10^4; read-out: minimum inhibitory concentration (MIC)
[2] = system: Bacteroides fragilis CUH-9; assay: MIC, serial two-fold dilution method (anaerobic); settings: CUH9; Bacteroides fragilis CUH-9; GAM agar medium; inoculum 10^7-10^8; read-out: minimum inhibitory concentration (MIC)
[3] = system: Escherichia coli NIHJ; assay: MIC, serial two-fold dilution method (aerobic); settings: Escherichia coli NIHJ; Mueller-Hinton agar; inoculum 10^4; read-out: minimum inhibitory concentration (MIC)
[4] = system: Staphylococcus aureus A9748; assay: MIC, serial two-fold dilution method (aerobic); settings: Staphylococcus aureus A9748; Mueller-Hinton agar; inoculum 10^4; read-out: minimum inhibitory concentration (MIC)
[5] = system: Veillonella alcalescens A21914-1; assay: MIC, serial two-fold dilution method (anaerobic); settings: Veillonella parvula, A219141; Veillonella alcalescens A21914-1; GAM agar medium; inoculum 10^7-10^8; read-out: minimum inhibitory concentration (MIC)
[6] = system: Clostridium ramosum A21970; assay: MIC, serial two-fold dilution method (anaerobic); settings: Thomasclavelia ramosa; Clostridium ramosum A21970; GAM agar medium; inoculum 10^7-10^8; read-out: minimum inhibitory concentration (MIC)
[7] = system: Fusobacterium necrophorum A20013; assay: MIC, serial two-fold dilution method (anaerobic); settings: Fusobacterium necrophorum A20013; GAM agar medium; inoculum 10^7-10^8; read-out: minimum inhibitory concentration (MIC)
[8] = system: S. aureus 209P; assay: Antibiotic sensitivity, paper disc-agar diffusion method; parameters: key: S (sensitive); R (resistant); I (intermediate); settings: nutrient agar, 2 day's incubation at 28° C., Difco discs, amount/disc per antibiotic
[9] = system: Bacteroides fragilis A22695; assay: MIC, serial two-fold dilution method (anaerobic); settings: Bacteroides fragilis A22695; GAM agar medium; inoculum 10^7-10^8; read-out: minimum inhibitory concentration (MIC)
[10] = system: Clostridium difficile A21675; assay: MIC, serial two-fold dilution method (anaerobic); settings: Clostridioides difficile; Clostridium difficile A21675; GAM agar medium; inoculum 10^7-10^8; read-out: minimum inhibitory concentration (MIC)
[11] = system: Clostridium difficile A21972; assay: MIC, serial two-fold dilution method (anaerobic); settings: Clostridioides difficile; Clostridium difficile A21972; GAM agar medium; inoculum 10^7-10^8; read-out: minimum inhibitory concentration (MIC)
[12] = system: Clostridium septicum A21869; assay: MIC, serial two-fold dilution method (anaerobic); settings: Clostridium septicum A21869; GAM agar medium; inoculum 10^7-10^8; read-out: minimum inhibitory concentration (MIC)
[13] = system: Clostridium chauvoei A9561; assay: MIC, serial two-fold dilution method (anaerobic); settings: Clostridium chauvoei A9561; GAM agar medium; inoculum 10^7-10^8; read-out: minimum inhibitory concentration (MIC)
[14] = system: Clostridium acidiurici A9560; assay: MIC, serial two-fold dilution method (anaerobic); settings: Gottschalkia acidurici; Clostridium acidiurici A9560; GAM agar medium; inoculum 10^7-10^8; read-out: minimum inhibitory concentration (MIC)
[15] = system: Staphylococcus aureus A20701; assay: MIC, serial two-fold dilution method (aerobic); settings: Staphylococcus aureus A20701; Mueller-Hinton agar; inoculum 10^4; read-out: minimum inhibitory concentration (MIC)
[16] = system: Bacteroides fragilis A22533; assay: MIC, serial two-fold dilution method (anaerobic); settings: Bacteroides fragilis A22533; GAM agar medium; inoculum 10^7-10^8; read-out: minimum inhibitory concentration (MIC)
[17] = system: Peptococcus magnas A21676; assay: MIC, serial two-fold dilution method (anaerobic); settings: Peptococcus magnas A21676; GAM agar medium; inoculum 10^7-10^8; read-out: minimum inhibitory concentration (MIC)
[18] = system: Streptococcus pyogenes S-23; assay: MIC, serial two-fold dilution method (aerobic); settings: S23; Streptococcus pyogenes S-23; GC medium; inoculum 10^6 CFU/ml; read-out: minimum inhibitory concentration (MIC)
[19] = system: Proteus mirabilis A9554; assay: MIC, serial two-fold dilution method (aerobic); settings: Proteus mirabilis A9554; Mueller-Hinton agar; inoculum 10^4; read-out: minimum inhibitory concentration (MIC)
[20] = system: Klebsiella pneumoniae D-11; assay: MIC, serial two-fold dilution method (aerobic); settings: D11; Klebsiella pneumoniae D-11; Mueller-Hinton agar; inoculum 10^4; read-out: minimum inhibitory concentration (MIC)
[21] = system: Peptostreptococcus anaerobius A21905; assay: MIC, serial two-fold dilution method (anaerobic); settings: Peptostreptococcus anaerobius A21905; GAM agar medium; inoculum 10^7-10^8; read-out: minimum inhibitory concentration (MIC)
[22] = system: Streptococcus pneumoniae A15069; assay: MIC, serial two-fold dilution method (aerobic); settings: Streptococcus pneumoniae A15069; GC medium; inoculum 10^6 CFU/ml; read-out: minimum inhibitory concentration (MIC)
[23] = system: Propionibacterium acnes A22650; assay: MIC, serial two-fold dilution method (anaerobic); settings: Cutibacterium acnes; Propionibacterium acnes A22650; GAM agar medium; inoculum 10^7-10^8; read-out: minimum inhibitory concentration (MIC)
[24] = system: Sarcina lutea PCI-1001; assay: MIC, serial two-fold dilution method (aerobic); settings: Micrococcus luteus, PCI1001; Sarcina lutea PCI-1001; Mueller-Hinton agar; inoculum 10^4; read-out: minimum inhibitory concentration (MIC)
[25] = system: Bacteroides fragilis A20926; assay: MIC, serial two-fold dilution method (anaerobic); settings: Bacteroides fragilis A20926; GAM agar medium; inoculum 10^7-10^8; read-out: minimum inhibitory concentration (MIC)
[26] = system: Clostridium perfringens A9635; assay: microbe, parasite or virus in culture; settings: Clostridium perfringens, A9635, read-out: minimum inhibitory concentration (MIC)

Compound: CC1(C)S[C@@H]2[C@H](NC(=O)[C@H](N)c3ccccc3)C(=O)N2[C@H]1C(=O)O [Ampicillin]
- MIC [1]: 1.6 µg/mL (≈ 4.58 µM)
- MIC [2]: 3.1 µg/mL (≈ 8.87 µM)
- MIC [3]: 0.4 µg/mL (≈ 1.14 µM)
- MIC [4]: 25 µg/mL (≈ 71.5 µM)
- MIC [5]: 0.025 µg/mL (≈ 0.0715 µM)
- MIC [6]: 0.8 µg/mL (≈ 2.29 µM)
- MIC [7]: > 100 µg/mL
- Sensitivity S. aureus 209P [8]: S
- MIC [9]: > 100 µg/mL
- MIC [10]: 1.6 µg/mL (≈ 4.58 µM)
- MIC [11]: 0.2 µg/mL (≈ 0.572 µM)
- MIC [12]: 0.8 µg/mL (≈ 2.29 µM)
- MIC [13]: 0.4 µg/mL (≈ 1.14 µM)
- MIC [14]: 0.8 µg/mL (≈ 2.29 µM)
- MIC [15]: 25 µg/mL (≈ 71.5 µM)
- MIC [16]: > 100 µg/mL
- MIC [17]: 0.1 µg/mL (≈ 0.286 µM)
- MIC [18]: 0.013 µg/mL (≈ 0.0372 µM)
- MIC [19]: 0.8 µg/mL (≈ 2.29 µM)
- MIC [20]: 0.8 µg/mL (≈ 2.29 µM)
- MIC [21]: 0.1 µg/mL (≈ 0.286 µM)
- MIC [22]: 0.025 µg/mL (≈ 0.0715 µM)
- MIC [23]: 0.05 µg/mL (≈ 0.143 µM)
- MIC [24]: < 0.05 µg/mL
- MIC [25]: 0.2 µg/mL (≈ 0.572 µM)
- MIC [26]: 0.2 µg/mL (≈ 0.572 µM)
